Results taken from publication PMC2518627 (Analytical Biochemistry, 2007).

Experiments:
[1] = tested on: NAADP binding protein from sea urchin (L. pictus) egg homogenate; test: NAADP radioreceptor binding assay (displacement of [32P]NAADP); design: species or system Lytechinus pictus; conditions: for IC50: read-out: IC50 (displacement of [32P]NAADP binding), 1% sea urchin egg homogenate, 25 °C
Method: First, 25 μl of test sample was added to each tube. Second, 125 μl of 1% (v/v) sea urchin egg homogenate in intracellular medium was added and allowed to incubate for 10 min at 25 °C. […] The tubes were then incubated at room temperature for a further 10 min at 25 °C. Note that the order of addition is important to maximize the sensitivity of the assay. […] Washing was carried out three times using 1 ml of a buffer containing 20 mM Hepes and 500 mM potassium acetate (pH 7.4).
Radioactivity was determined by placing the filter circles in a scintillation vial containing 10 ml H2O, followed by Cerenkov scintillation counting.
Filter papers were wrapped in cling film and then placed in a cassette to expose a storage phosphor screen (GE Healthcare) for 1 to 4 h. The screen was then scanned using a Typhoon 9400 scanner (GE Healthcare) at a resolution of 100 μm. The resulting image was then analyzed using ImageQuant (GE Healthcare).
Samples are then filtered using a cell harvester. […] Sample concentrations may then be determined from the standard curve.

[2] = tested on: pancreatic acinar cells; test: NAADP levels in pancreatic acinar cells preincubated with BAPTA-AM; type: cell-based, CD1 mice
Method: Cells may be prepared in any suitable manner; gametes, isolated cells, chopped tissue, and cells in culture all have been used successfully. Cells were then exposed to agonist, and at the appropriate time points the reaction in cells was stopped by the addition of 0.75 M ice-cold HClO4 added as an equal volume of 1.5 M solution. Sonication (Jencons Vibracell at amplitude 60) was carried out to disrupt the cells, which were then placed on ice for 15 min. The denatured protein was pelleted by centrifugation at 9000g for 10 min and stored at –80 °C for later analysis. Supernatant was neutralized with 1 M KHCO3, added as an equal volume of 2 M solution, and vortexed. The resulting KClO4 precipitate was removed by centifugation at 9000g for 10 min. Samples were stored at –80 °C for later analysis.
Pancreatic acinar cells were prepared as described previously. Briefly, pancreata were excised from 8- to 10-week-old male CD1 mice and were finely chopped before incubation with 200 U/ml collagenase for 15 min at 37 °C. The digested tissue was then washed and resuspended to 10 ml with buffer of the following composition: 140 mM NaCl, 4.7 mM KCl, 1 mM MgCl2, 1 mM CaCl2, 10 mM Hepes, and 10 mM glucose (pH 7.4). Protease inhibitor cocktail tablets (EDTA free, Roche Diagnostics, UK), one tablet per 50 ml, were added to this solution before use. The suspension was triturated, and supernatant that contained dispersed cells was collected into a new tube. After centrifugation at 800g for 3 min at 4 °C, the supernatant was discarded and the cell pellet was resuspended for further trituration and centrifugation. The resulting supernatant was discarded, and the cells were kept in buffer supplemented with 1 mM CaCl2 at room temperature on a rocking board for 30 min before use. Prior to use, the cells were centrifuged at 800g for 1 min at 4 °C. The cells were suspended in the above buffer without the addition of protease inhibitors. Pancreatic acinar cells were aliquoted into tubes. […]

[3] = Stability of nucleotides under different pH conditions (HPLC); type: physicochemical; conditions: 1 mM, 6 h
Method: All high-performance liquid chromatography (HPLC) was carried out on an anion exchange resin (AGMP1, Bio-Rad, USA), packed in 150 × 2.5-mm Omnifit columns, using a concave upward gradient of trifluoroacetic acid (TFA), delivered by a Waters 600e pump, as described previously. Detection was performed by a UV detector (Waters 2487, UK) at 254 nm.
Samples were then neutralized with their base equivalence of either Tris base (for acidic solutions) or Hepes acid (for basic solutions) as applicable. Samples were analyzed by HPLC as described above, with elution times being determined from standard runs with known compounds.

[4] = tested on: human NAD kinase; design: method as in PMID 11594753; conditions: cited from earlier work
[5] = maximum concentration tested 2 mM
[6] = maximum concentration tested 100 μM
[7] = 100 pM CCK after preincubation with 20 μM BAPTA-AM

For `NC(=O)C1=CN([C@@H]2O[C@H](COP(=O)(O)OP(=O)(O)OC[C@H]3O[C@@H](n4cnc5c(N)ncnc54)[C@H](O)[C@@H]3O)[C@@H](O)[C@H]2O)C=CC1` [NADH], the “Displacement of NAADP at the maximum concentration tested” value (“Displacement of NAADP” below) [1, 5] was “failed to displace”.
“nicotinamide adenine dinucleotide phosphate [NADP]” gave an IC50 [1] of 21 µM.
With `O=P(O)(O)O[C@@H]1[C@H](O)[C@H](O)[C@@H](OP(=O)(O)O)[C@H](OP(=O)(O)O)[C@H]1O` [IP3, D-myo-inositol 1,4,5-trisphosphate] the “Displacement of NAADP” value [1, 6] was “failed to displace”.
In the case of `Nc1ncnc2c1ncn2[C@@H]1O[C@H](COP(=O)(O)OP(=O)(O)O)[C@@H](O)[C@H]1O` [ADP], the “Displacement of NAADP” value [1, 6] is reported as “failed to displace”.
In the case of `Nc1ncnc2c1ncn2[C@@H]1O[C@H](COP(=O)(O)OP(=O)(O)OC[C@H]2OC(O)[C@H](O)[C@@H]2O)[C@@H](O)[C@H]1O` (stereo partly shown) [ADPR], the “Displacement of NAADP” value [1, 6] is reported as “failed to displace”.
Compound `N=c1c2ncn3c2ncn1[C@@H]1O[C@H](COP(=O)(O)OP(=O)(O)OC[C@H]2O[C@@H]3[C@H](O)[C@@H]2O)[C@@H](O)[C@H]1O` [cADPR, cyclic ADP ribose] has an IC50 [1] of 2.5 µM.
For `CC(=O)OCOC(=O)CN(CC(=O)OCOC(C)=O)c1ccccc1OCCOc1ccccc1N(CC(=O)OCOC(C)=O)CC(=O)OCOC(C)=O` [BAPTA-AM, 1,2-bis(2-aminophenoxy)ethane-N,N,N′,N′-tetraacetic acid tetrakis (acetoxymethyl) ester], the “Change in NAADP levels” value ([2]; 20 μM BAPTA-AM alone, followed by control buffer) was “no change”.
With `NC(=O)C1=CN([C@@H]2O[C@H](COP(=O)(O)OP(=O)(O)OC[C@H]3O[C@@H](n4cnc5c(N)ncnc54)[C@H](OP(=O)(O)O)[C@@H]3O)[C@@H](O)[C@H]2O)C=CC1` [NADPH] the IC50 [1] was 6.3 µM, the “Stability at pH 7.2” value ([3]; 50 mM Hepes (pH 7.2)) was “remained stable” and the “Stability at pH 0.88” value ([3]; 0.75 M HClO4 (pH 0.88)) was “became unstable”. For the same compound, the “Stability at pH 8.6” value ([3]; 0.75 M HClO4/1 M KHCO3 (pH 8.6)) was “became unstable”, the “Stability at pH 11” value ([3]; 1 M K2CO3 (pH 11)) was “similarly unstable” and the “Stability at pH 9.1” value ([3]; 1 M KHCO3 (pH 9.1)) was “became unstable”.
In the case of `O=C(O)c1cccnc1` [nicotinic acid], the “Displacement of NAADP” value [1, 6] is reported as “failed to displace”.
With “nicotinic acid adenine dinucleotide phosphate [NAADP]” the IC50 [1] was 0.00054 µM.
For `NC(=O)c1ccc[n+]([C@@H]2O[C@H](COP(=O)([O-])OP(=O)(O)OC[C@H]3O[C@@H](n4cnc5c(N)ncnc54)[C@H](O)[C@@H]3O)[C@@H](O)[C@H]2O)c1` [NAD, nicotinamide adenine dinucleotide], the “Displacement of NAADP” value [1, 5] is given as “failed to displace” and the Km [4] is given as 800 µM.
In the case of cholecystokinin [CCK], the “Change in NAADP levels” value [2, 7] is reported as “continuous increase” and the “Duration of increase in NAADP levels” value [2, 7] is reported as “at least 20 min”.
Work on `Nc1ncnc2c1ncn2[C@@H]1O[C@H](COP(=O)(O)OP(=O)(O)OC[C@H]2O[C@@H]([n+]3cccc(C(=O)O)c3)[C@H](O)[C@@H]2O)[C@@H](O)[C@H]1O` [NAAD, nicotinic acid adenine dinucleotide] yielded an IC50 [1] of 51 µM.
With `Nc1ncnc2c1ncn2[C@@H]1O[C@H](COP(=O)(O)OP(=O)(O)OP(=O)(O)O)[C@@H](O)[C@H]1O` [ATP] the “Displacement of NAADP” value [1, 6] was “failed to displace”.
With `Nc1ncnc2c1ncn2[C@@H]1O[C@H](COP(=O)(O)O)[C@@H](O)[C@H]1O` [AMP] the “Displacement of NAADP” value [1, 6] was “failed to displace”.
